Reference: patent US12528816B2, “Substituted imidazo [1,2-b] pyridazines and [1, 2, 4] triazolo [ 4,3-b] pyridazines as camkii inhibitors” (Cardurion Pharmaceuticals, INC., priority 2020, dated 2026)

molecular target: T1, human CaMKIIδ (Homo sapiens, UniProt Q13557); assay: Evaluation of in vitro CaMKII inhibitory activity (binding assay, TR-FRET); conditions: human CaMKIIδ, TR-FRET binding assay; class symbols A/B/C; read-out: Act (CaMKII inhibitory activity, binding assay)
T1 construct: Full-length, glutathione-S-transferase(GST)-tagged, human CaMKIIδ was purchased from Carna Biosciences; purchased Carna Biosciences (CaMKIIδ); Wako Pure Chemical Industries (calmodulin) 02-111
Protocol: Evaluation of In Vitro CaMKII Inhibitory Activity (Binding Assay)
In vitro CaMKIIδ inhibitory activity was evaluated by a binding assay.
Full-length bovine calmodulin was purchased from Wako Pure Chemical Industries (Osaka, Japan). Terbium-labeled anti-GST anti body (Tb-anti-GST Ab) was purchased from Life Technologies (Carlsbad, CA, USA). Fluorescent probe ligand, 5,5-difluoro-7,9-dimethyl-3-(3-oxo-3-((3-((4-(3-(piperazin-1-yl)phenyl)pyrimidin-2-yl)amino)phenyl)amino) propyl)-5H-dipyrrolo[1,2-c:2′,1′-f]
Time-resolved fluorescence resonance energy transfer (TR-FRET) assay
The fluorescent probe ligand, 5,5-difluoro-7,9-dimethyl-3-(3-oxo-3-((3-((4-(3-(piperazin-1-yl)phenyl)pyrimidin-2-yl)amino)phenyl)amino) propyl)-5H-dipyrrolo[1,2-c:2′,1′-f] […] After shaded incubation of the protein-probe mixture on ice for 30 min, the premix was dispensed in the assay plate including test inhibitors with 4 fold dilution series of eight concentrations. After 1 hr incubation at room temperature, TR-FRET signals were measured in duplicate using an EnVision microplate reader (Perkin Elmer, Waltham, MA, USA).
The half maximal inhibitory concentration (IC50) of test compounds was calculated by fitting the data with the logistic equation using XLfit (IDBS, Guildford, UK).

`COc1ccnc(-c2cnc3ccc(-c4ccc(F)c(N[C@@H](C)Cn5cnnn5)c4)nn23)c1C#N` [Example 478, 2-[6-(4-fluoro-3-{[(2S)-1-(1H-tetrazol-1-yl)propan-2-yl]amino}phenyl)imidazo[1,2-b]pyridazin-3-yl]-4-methoxypyridine-3-carbonitrile] and `C[C@@H](Cn1cnnn1)Oc1cc(-c2ccc3ncc(-c4cccs4)n3n2)ccc1F` [compound 60] cannot be ordered by IC50: under 0.01 µM for the first, under 0.01 µM for the second.

Going from `COC(=O)c1cccc(-c2cnn3ccc(-c4ccc(C#N)c(O[C@@H](C)Cn5cnnn5)c4)nc23)c1` [compound 2, methyl 3-[5-(4-cyano-3-{[(2S)-1-(1H-tetrazol-1-yl)propan-2-yl]oxy}phenyl)pyrazolo[1,5-a]pyrimidin-3-yl]benzoate] to `COC(=O)c1cccc(-c2cnn3ccc(-c4ccc(F)c(O[C@@H](C)Cn5cnnn5)c4)nc23)c1` [compound 6], the IC50 falls from over 0.1 µM to under 0.01 µM. The second is the more potent here.

`C[C@@H](Cn1cnnn1)Oc1cc(-c2ccn3ncc(-c4cccs4)c3n2)ccc1F` [compound 3] and `C[C@@H](Cn1cnnn1)Oc1cc(-c2ccn3ncc(-c4ccsc4)c3n2)ccc1F` [compound 26] cannot be ordered by IC50: under 0.01 µM for the first, under 0.01 µM for the second.

`C[C@@H](Cn1cnnn1)Oc1cc(-c2ccn3ncc(-c4ccccn4)c3n2)ccc1F` [compound 4] and `C[C@@H](Cn1cnnn1)Oc1cc(-c2ccn3ncc(-c4ccccc4)c3n2)ccc1F` [compound 5] cannot be ordered by IC50: under 0.01 µM for the first, under 0.01 µM for the second.

`C[C@@H](Cn1cnnn1)Oc1cc(-c2ccn3ncc(-c4cccc(C(=O)O)c4)c3n2)ccc1F` [compound 7] and `CNC(=O)c1cccc(-c2cnn3ccc(-c4ccc(F)c(O[C@@H](C)Cn5cnnn5)c4)nc23)c1` [compound 35] cannot be ordered by IC50: under 0.01 µM for the first, under 0.01 µM for the second.

`CCNC(=O)c1cccc(-c2cnn3ccc(-c4ccc(F)c(O[C@@H](C)Cn5cnnn5)c4)nc23)c1` [compound 8] and `COCCCNC(=O)c1cccc(-c2cnn3ccc(-c4ccc(F)c(O[C@@H](C)Cn5cnnn5)c4)nc23)c1` [compound 9] cannot be ordered by IC50: under 0.01 µM for the first, under 0.01 µM for the second.

First: C[C@@H](Cn1cnnn1)Oc1cc(-c2ccn3ncc(-c4cccc(C(=O)N5CCC(N6CCOCC6)CC5)c4)c3n2)ccc1F [compound 10]
Second: C[C@@H](Cn1cnnn1)Oc1cc(-c2ccn3ncc(-c4cccc(N5CCOCC5)c4)c3n2)ccc1F [compound 47]
The IC50 of the first is lower: under 0.01 µM for the first, 0.01 to 0.1 µM for the second.

First: CCN(CC)CCNC(=O)c1cccc(-n2cnc3ccc(-c4ccc(C#N)c(O[C@@H](C)Cn5cnnn5)c4)nc32)c1 [compound 11]
Second: CCN(CC)CCNC(=O)c1cccc(-n2cnc3ccc(-c4ccc(F)c(O[C@@H](C)Cn5cnnn5)c4)nc32)c1 [compound 12]
The IC50 of the first is higher: over 0.1 µM for the first, under 0.01 µM for the second.

First: COC(=O)c1cccc(-n2cnc3ccc(-c4ccc(F)c(O[C@@H](C)Cn5cnnn5)c4)nc32)c1 [compound 13]
Second: C[C@@H](Cn1cnnn1)Oc1cc(-c2ccc3ncn(-c4cccc(C(=O)O)c4)c3n2)ccc1F [compound 62]
The IC50 of the first is lower: under 0.01 µM for the first, 0.01 to 0.1 µM for the second.

`COC(=O)c1ccnc(-n2cnc3ccc(-c4ccc(F)c(O[C@@H](C)Cn5cnnn5)c4)nc32)c1` [compound 14] and `CC(=O)Nc1cccc(-c2cnn3ccc(-c4ccc(F)c(O[C@@H](C)Cn5cnnn5)c4)nc23)c1` [compound 36] cannot be ordered by IC50: under 0.01 µM for the first, under 0.01 µM for the second.

`C[C@@H](Cn1cnnn1)Oc1cccc(-c2ccn3ncc(-c4ccc(N5CCOCC5)cc4)c3n2)c1` [compound 15] and `C[C@@H](Cn1cnnn1)Oc1cc(-c2ccn3ncc(-c4ccc(N5CCOCC5)cc4)c3n2)ccc1F` [compound 49] fall in the same range of IC50: 0.01 to 0.1 µM for the first, 0.01 to 0.1 µM for the second.

`C[C@@H](Cn1cnnn1)Oc1cccc(-c2ccn3ncc(-c4cccc(C(=O)O)c4)c3n2)c1` [compound 16] and `C[C@@H](Cn1cnnn1)Oc1cccc(-c2ccn3ncc(-c4cccc(C(=O)NCC5CC5)c4)c3n2)c1` [compound 63] cannot be ordered by IC50: under 0.01 µM for the first, under 0.01 µM for the second.

Compared with `C[C@@H](Cn1cnnn1)Oc1cc(-c2ccc3ncc(-c4cccs4)n3c2)ccc1F` [compound 17], `C[C@@H](Cn1cnnn1)Oc1cc(-c2ccn3ncc(-c4ccncc4)c3n2)ccc1F` [compound 21] is lower in IC50: 0.01 to 0.1 µM for the first, under 0.01 µM for the second. The second is the more potent here.

`C[C@@H](Cn1cnnn1)Oc1cc(-c2ccn3ncc(-c4ccco4)c3n2)ccc1F` [compound 18] and `C[C@@H](Cn1cnnn1)Oc1cc(-c2ccn3ncc(-c4ccoc4)c3n2)ccc1F` [compound 19] cannot be ordered by IC50: under 0.01 µM for the first, under 0.01 µM for the second.

`C[C@@H](Cn1cnnn1)Oc1cc(-c2ccn3ncc(-c4cccnc4)c3n2)ccc1F` [compound 20] and `C[C@@H](Cn1cnnn1)Oc1cc(-c2ccn3ncc(-c4cncnc4)c3n2)ccc1F` [compound 22] cannot be ordered by IC50: under 0.01 µM for the first, under 0.01 µM for the second.

First: C[C@@H](Cn1cnnn1)Oc1cc(-c2ccn3ncc(-c4cnn(C)c4)c3n2)ccc1F [compound 23]
Second: C[C@@H](Cn1cnnn1)Oc1cc(-c2ccn3ncc(-c4ccnn4C)c3n2)ccc1F [compound 24]
The IC50 of the first is lower: under 0.01 µM for the first, 0.01 to 0.1 µM for the second.

`C[C@@H](Cn1cnnn1)Oc1cc(-c2ccn3ncc(-c4ccn(C)n4)c3n2)ccc1F` [compound 25] and `C[C@@H](Cn1cnnn1)Oc1cc(-c2ccn3ncc(-c4cncs4)c3n2)ccc1F` [compound 27] cannot be ordered by IC50: under 0.01 µM for the first, under 0.01 µM for the second.

`C[C@@H](Cn1cnnn1)Oc1cc(-c2ccn3ncc(-c4ccccc4C#N)c3n2)ccc1F` [compound 28] and `C[C@@H](Cn1cnnn1)Oc1cc(-c2ccn3ncc(-c4ccccc4F)c3n2)ccc1F` [compound 52] cannot be ordered by IC50: under 0.01 µM for the first, under 0.01 µM for the second.

`C[C@@H](Cn1cnnn1)Oc1cc(-c2ccn3ncc(-c4cccc(C#N)c4)c3n2)ccc1F` [compound 29] and `C[C@@H](Cn1cnnn1)Oc1cc(-c2ccn3ncc(-c4cccc(F)c4)c3n2)ccc1F` [compound 50] cannot be ordered by IC50: under 0.01 µM for the first, under 0.01 µM for the second.

First: COc1ccc(-c2cnn3ccc(-c4ccc(F)c(O[C@@H](C)Cn5cnnn5)c4)nc23)cc1 [compound 30]
Second: COCCOc1ccc(-c2cnn3ccc(-c4ccc(F)c(O[C@@H](C)Cn5cnnn5)c4)nc23)cc1 [compound 44]
The IC50 of the first is lower: under 0.01 µM for the first, 0.01 to 0.1 µM for the second.

`COc1ccccc1-c1cnn2ccc(-c3ccc(F)c(O[C@@H](C)Cn4cnnn4)c3)nc12` [compound 31] and `COCCOc1ccccc1-c1cnn2ccc(-c3ccc(F)c(O[C@@H](C)Cn4cnnn4)c3)nc12` [compound 43] cannot be ordered by IC50: under 0.01 µM for the first, under 0.01 µM for the second.

`COc1cccc(-c2cnn3ccc(-c4ccc(F)c(O[C@@H](C)Cn5cnnn5)c4)nc23)c1` [compound 32] and `C[C@@H](Cn1cnnn1)Oc1cc(-c2ccn3ncc(-c4cccc(OCC#N)c4)c3n2)ccc1F` [compound 33] cannot be ordered by IC50: under 0.01 µM for the first, under 0.01 µM for the second.

`CNC(=O)c1ccccc1-c1cnn2ccc(-c3ccc(F)c(O[C@@H](C)Cn4cnnn4)c3)nc12` [compound 34] and `CC(=O)Nc1ccccc1-c1cnn2ccc(-c3ccc(F)c(O[C@@H](C)Cn4cnnn4)c3)nc12` [compound 39] cannot be ordered by IC50: over 0.1 µM for the first, over 0.1 µM for the second.

`CNC(=O)c1ccc(-c2cnn3ccc(-c4ccc(F)c(O[C@@H](C)Cn5cnnn5)c4)nc23)cc1` [compound 37] and `CC(=O)Nc1ccc(-c2cnn3ccc(-c4ccc(F)c(O[C@@H](C)Cn5cnnn5)c4)nc23)cc1` [compound 38] cannot be ordered by IC50: under 0.01 µM for the first, under 0.01 µM for the second.

`C[C@@H](Cn1cnnn1)Oc1cc(-c2ccn3ncc(-c4cccc(CN(C)C)c4)c3n2)ccc1F` [compound 40] and `C[C@@H](Cn1cnnn1)Oc1cc(-c2ccn3ncc(-c4ccc(CN(C)C)cc4)c3n2)ccc1F` [compound 41] cannot be ordered by IC50: under 0.01 µM for the first, under 0.01 µM for the second.

First: CC(=O)N1CCN(c2ccc(-c3cnn4ccc(-c5ccc(F)c(O[C@@H](C)Cn6cnnn6)c5)nc34)cc2)CC1 [compound 42]
Second: C[C@@H](Cn1cnnn1)Oc1cc(-c2ccn3ncc(-c4ccc(N5CCNCC5)cc4)c3n2)ccc1F [compound 56]
The IC50 of the first is higher: 0.01 to 0.1 µM for the first, under 0.01 µM for the second. The second is the more potent here.

`C[C@@H](Cn1cnnn1)Oc1cc(-c2ccn3ncc(-c4ccccc4OC(F)(F)F)c3n2)ccc1F` [compound 45] and `C[C@@H](Cn1cnnn1)Oc1cc(-c2ccn3ncc(-c4cccc(OC(F)(F)F)c4)c3n2)ccc1F` [compound 46] fall in the same range of IC50: 0.01 to 0.1 µM for the first, 0.01 to 0.1 µM for the second.

Compared with `C[C@@H](Cn1cnnn1)Oc1cc(-c2ccn3ncc(-c4ccccc4N4CCOCC4)c3n2)ccc1F` [compound 48], `C[C@@H](Cn1cnnn1)Oc1cc(-c2ccn3ncc(-c4ccccc4N4CCNCC4)c3n2)ccc1F` [compound 55] is higher in IC50: 0.01 to 0.1 µM for the first, over 0.1 µM for the second.

Compared with `C[C@@H](Cn1cnnn1)Oc1cc(-c2ccn3ncc(-c4ccc(F)cc4)c3n2)ccc1F` [compound 51], `CC(C)c1ccc(-c2cnn3ccc(-c4ccc(F)c(O[C@@H](C)Cn5cnnn5)c4)nc23)cc1` [compound 53] is higher in IC50: under 0.01 µM for the first, over 0.1 µM for the second. The first is the more potent here.

Compared with `C[C@@H](Cn1cnnn1)Oc1cc(-c2ccn3ncc(-c4cccc(OCC5CC5)c4)c3n2)ccc1F` [compound 54], `C[C@@H](Cn1cnnn1)Oc1cccc(-c2ccn3ncc(-c4cccc(C(=O)Nc5cn[nH]c5)c4)c3n2)c1` [compound 65] is lower in IC50: 0.01 to 0.1 µM for the first, under 0.01 µM for the second. The second is the more potent here.

Compared with `C[C@@H](Cn1nnc(N)n1)Oc1cccc(-c2ccn3ncc(-c4cccs4)c3n2)c1` [compound 58], `C[C@@H](Cn1nnnc1N)Oc1cccc(-c2ccn3ncc(-c4cccs4)c3n2)c1` [compound 59] is lower in IC50: over 0.1 µM for the first, under 0.01 µM for the second.

`CC(C)CCNC(=O)c1cccc(-c2cnn3ccc(-c4cccc(O[C@@H](C)Cn5cnnn5)c4)nc23)c1` [compound 64] and `C[C@@H](Cn1cnnn1)Oc1cccc(-c2ccn3ncc(-c4cccc(C(=O)NCCCN5CC(O)C5)c4)c3n2)c1` [compound 66] cannot be ordered by IC50: under 0.01 µM for the first, under 0.01 µM for the second.
